Measured values taken from PMC7424564 (Pharmacology Research & Perspectives, 2020).
In brackets after ≈: the same amount, converted by molar mass. Several values for one entry are separate records, joined by “and”; a condition that tells them apart may be missing. Equal entries are not always repeated. Entries after “also recorded” stand apart in the source; their conditions may differ. Where two headings read alike, the source gives them in different places.

What was measured:
[1] = system: mutant BTK (C481S); details: cited from earlier work
[2] = molecular target: mutant BTK (C481S) (Homo sapiens, UniProt Q06187, C481S); assay: BTK enzyme activity assay; type: biochemical
Chain of mutant BTK (C481S) (Homo sapiens, UniProt Q06187, C481S) (Q06187 whole entry C481S): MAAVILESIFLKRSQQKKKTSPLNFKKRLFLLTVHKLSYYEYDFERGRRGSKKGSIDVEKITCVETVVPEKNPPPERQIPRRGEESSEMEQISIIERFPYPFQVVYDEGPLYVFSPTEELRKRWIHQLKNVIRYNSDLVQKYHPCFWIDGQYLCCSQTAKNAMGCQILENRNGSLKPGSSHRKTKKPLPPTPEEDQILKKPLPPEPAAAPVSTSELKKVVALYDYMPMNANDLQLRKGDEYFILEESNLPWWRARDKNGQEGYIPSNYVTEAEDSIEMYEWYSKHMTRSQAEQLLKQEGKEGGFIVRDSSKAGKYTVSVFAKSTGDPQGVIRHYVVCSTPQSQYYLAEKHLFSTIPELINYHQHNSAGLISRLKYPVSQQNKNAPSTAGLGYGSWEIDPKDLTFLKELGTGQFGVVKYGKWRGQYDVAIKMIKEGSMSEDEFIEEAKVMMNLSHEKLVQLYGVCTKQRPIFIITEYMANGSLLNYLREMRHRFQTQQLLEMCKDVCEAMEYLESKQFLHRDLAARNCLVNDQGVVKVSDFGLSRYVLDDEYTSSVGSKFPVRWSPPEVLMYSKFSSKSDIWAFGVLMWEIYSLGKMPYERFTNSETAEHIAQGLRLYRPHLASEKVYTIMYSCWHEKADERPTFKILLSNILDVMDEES

[3] = molecular target: BTK‐WT (Homo sapiens, UniProt Q06187); assay: Ki determination with Omnia Tyr peptide kit; type: biochemical
Chain of BTK‐WT (Q06187 whole entry): as the sequence (Q06187 whole entry C481S) above, with S481C counted along it

[4] = molecular target: T1, BTK (Homo sapiens, UniProt Q06187); assay: Kinase profiling; type: biochemical
T1 sequence (Q06187 whole entry): as the sequence (Q06187 whole entry C481S) above, with S481C counted along it

[5] = molecular target: HCK (Homo sapiens, UniProt P08631); assay: Kinase profiling; type: biochemical
Chain of HCK (P08631 whole entry): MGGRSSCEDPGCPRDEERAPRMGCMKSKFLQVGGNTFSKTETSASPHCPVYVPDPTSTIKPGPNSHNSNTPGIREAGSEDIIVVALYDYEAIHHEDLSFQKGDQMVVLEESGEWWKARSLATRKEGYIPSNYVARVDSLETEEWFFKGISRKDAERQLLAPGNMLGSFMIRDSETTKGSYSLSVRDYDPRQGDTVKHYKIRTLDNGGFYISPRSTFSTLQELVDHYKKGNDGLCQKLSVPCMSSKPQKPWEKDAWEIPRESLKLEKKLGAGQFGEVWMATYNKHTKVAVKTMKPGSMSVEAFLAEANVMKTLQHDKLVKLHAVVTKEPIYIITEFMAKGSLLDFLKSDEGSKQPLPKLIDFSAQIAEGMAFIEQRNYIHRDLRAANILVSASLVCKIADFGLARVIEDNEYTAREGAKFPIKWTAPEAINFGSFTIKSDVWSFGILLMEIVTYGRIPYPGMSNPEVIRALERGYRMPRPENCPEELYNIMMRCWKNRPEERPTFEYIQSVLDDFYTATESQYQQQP

[6] = molecular target: JAK3 (Homo sapiens, UniProt P52333); assay: Kinase profiling; type: biochemical
[7] = molecular target: TEC (Homo sapiens, UniProt P42680); assay: Kinase profiling; type: biochemical
Chain of TEC (P42680 whole entry): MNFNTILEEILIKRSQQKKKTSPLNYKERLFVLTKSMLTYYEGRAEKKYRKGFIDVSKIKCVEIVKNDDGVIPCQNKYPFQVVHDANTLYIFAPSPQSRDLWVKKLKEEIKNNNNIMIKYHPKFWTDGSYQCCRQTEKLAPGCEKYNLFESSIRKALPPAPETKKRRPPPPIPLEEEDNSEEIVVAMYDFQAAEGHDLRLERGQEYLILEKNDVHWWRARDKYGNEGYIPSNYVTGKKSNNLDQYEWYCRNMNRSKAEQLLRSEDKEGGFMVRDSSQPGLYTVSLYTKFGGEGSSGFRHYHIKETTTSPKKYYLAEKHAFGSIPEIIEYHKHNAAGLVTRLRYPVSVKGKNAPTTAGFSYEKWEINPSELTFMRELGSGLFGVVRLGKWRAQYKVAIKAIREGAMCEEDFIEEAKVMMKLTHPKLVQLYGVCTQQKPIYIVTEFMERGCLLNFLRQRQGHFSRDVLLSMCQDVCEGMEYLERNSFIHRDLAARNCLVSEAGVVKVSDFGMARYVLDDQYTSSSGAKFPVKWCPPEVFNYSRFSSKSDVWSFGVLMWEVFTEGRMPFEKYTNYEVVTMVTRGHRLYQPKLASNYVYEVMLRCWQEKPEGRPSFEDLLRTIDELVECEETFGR

[8] = system: TMD8 cells; assay: Cell cytotoxicity assay; type: cell-based; details: Homo sapiens, TMD8, 96 h, read-out: IC50 cell proliferation TMD8
[9] = system: HBL‐1 cells; assay: Cell cytotoxicity assay; type: cell-based; details: HBL1, 96 h, read-out: IC50 cell proliferation HBL‐1
[10] = system: U2932 cells; assay: Cell cytotoxicity assay; type: cell-based; details: for IC50: Homo sapiens
[11] = system: Raji cells; assay: Cell cytotoxicity assay; type: cell-based; details: Homo sapiens, read-out: cell killing potency (IC50) Raji
[12] = molecular target: T1, BTK; assay: Fluorescence competition binding assay
[13] = molecular target: T1, BTK; assay: Receptor residence time after washout in THP‐1 cells; type: binding; details: 500 nmol/L for 1 hour, 24 hours, densitometric scanning
[14] = system: phospho‐BTK (Y223); assay: Phospho‐protein analysis in THP‐1 cells; type: cell-based, human
[15] = system: phospho‐PLCγ2 (Y1217); assay: Phospho‐protein analysis in THP‐1 cells; type: cell-based; details: Homo sapiens, THP-1, 1 h, read-out: IC50 PLCγ2‐phosphorylation (Y1217)
[16] = system: TNF‐α secretion; assay: Cytokine ELISA, TNF‐α secretion in THP‐1 cells; type: cell-based; details: Homo sapiens, THP-1, read-out: IC50 TNF‐α secretion
[17] = system: IL‐8 secretion; assay: Cytokine ELISA, IL‐8 secretion in TMD8 cells; type: cell-based; details: Homo sapiens, TMD8, 16 h, read-out: IC50 IL‐8 secretion
[18] = pH dependent solubility; type: physicochemical
[19] = Caco‐2 permeability/efflux ratio; type: in vitro ADME; details: human, Caco-2
[20] = system: Caco‐2 cell monolayers; assay: Caco‐2 permeability/efflux ratio; type: in vitro ADME; details: Caco2 monolayer
[21] = In vitro metabolism in liver microsomes; type: in vitro ADME; details: mouse liver microsomes
[22] = In vitro metabolism in liver microsomes; type: in vitro ADME; details: rat liver microsomes
[23] = In vitro metabolism in liver microsomes; type: in vitro ADME; details: dog liver microsomes
[24] = In vitro metabolism in liver microsomes; type: in vitro ADME; details: human liver microsomes
[25] = In vitro metabolism in liver microsomes; type: in vitro ADME; details: monkey liver microsomes
[26] = molecular target: CYP1A2 (Homo sapiens, UniProt P05177); assay: In vitro CYP inhibition in human liver microsomes; type: in vitro ADME
Chain of CYP1A2 (P05177 whole entry): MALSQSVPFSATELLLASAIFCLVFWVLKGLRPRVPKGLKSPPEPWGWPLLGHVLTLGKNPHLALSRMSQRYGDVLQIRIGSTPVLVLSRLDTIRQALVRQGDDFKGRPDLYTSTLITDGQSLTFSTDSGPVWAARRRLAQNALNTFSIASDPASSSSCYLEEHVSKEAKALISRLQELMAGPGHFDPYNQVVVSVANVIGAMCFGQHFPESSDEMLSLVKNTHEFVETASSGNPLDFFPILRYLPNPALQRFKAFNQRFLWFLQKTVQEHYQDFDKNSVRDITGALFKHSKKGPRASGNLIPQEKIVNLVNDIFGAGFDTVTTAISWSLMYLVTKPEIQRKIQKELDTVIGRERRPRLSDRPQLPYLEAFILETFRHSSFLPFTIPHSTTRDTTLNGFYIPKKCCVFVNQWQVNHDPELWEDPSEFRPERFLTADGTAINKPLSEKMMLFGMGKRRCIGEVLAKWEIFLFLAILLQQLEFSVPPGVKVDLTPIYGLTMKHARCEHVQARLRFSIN

[27] = molecular target: CYP2C19 (Homo sapiens, UniProt P33261); assay: In vitro CYP inhibition in human liver microsomes; type: in vitro ADME
Chain of CYP2C19 (P33261 whole entry): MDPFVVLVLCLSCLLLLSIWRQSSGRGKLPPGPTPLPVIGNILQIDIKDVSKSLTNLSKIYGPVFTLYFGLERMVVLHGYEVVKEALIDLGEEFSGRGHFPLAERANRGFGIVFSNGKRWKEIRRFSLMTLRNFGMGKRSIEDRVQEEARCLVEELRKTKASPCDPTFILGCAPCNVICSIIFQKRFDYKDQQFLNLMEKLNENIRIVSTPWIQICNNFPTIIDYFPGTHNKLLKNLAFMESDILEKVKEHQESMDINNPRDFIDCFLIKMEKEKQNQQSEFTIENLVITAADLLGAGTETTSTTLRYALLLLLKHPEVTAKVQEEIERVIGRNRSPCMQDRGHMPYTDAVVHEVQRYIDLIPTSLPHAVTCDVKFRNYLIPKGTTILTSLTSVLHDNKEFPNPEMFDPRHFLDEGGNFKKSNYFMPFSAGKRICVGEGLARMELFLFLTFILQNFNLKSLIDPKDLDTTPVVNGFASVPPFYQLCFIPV

[28] = molecular target: CYP2D6 (Homo sapiens, UniProt P10635); assay: In vitro CYP inhibition in human liver microsomes; type: in vitro ADME
Chain of CYP2D6 (P10635 whole entry): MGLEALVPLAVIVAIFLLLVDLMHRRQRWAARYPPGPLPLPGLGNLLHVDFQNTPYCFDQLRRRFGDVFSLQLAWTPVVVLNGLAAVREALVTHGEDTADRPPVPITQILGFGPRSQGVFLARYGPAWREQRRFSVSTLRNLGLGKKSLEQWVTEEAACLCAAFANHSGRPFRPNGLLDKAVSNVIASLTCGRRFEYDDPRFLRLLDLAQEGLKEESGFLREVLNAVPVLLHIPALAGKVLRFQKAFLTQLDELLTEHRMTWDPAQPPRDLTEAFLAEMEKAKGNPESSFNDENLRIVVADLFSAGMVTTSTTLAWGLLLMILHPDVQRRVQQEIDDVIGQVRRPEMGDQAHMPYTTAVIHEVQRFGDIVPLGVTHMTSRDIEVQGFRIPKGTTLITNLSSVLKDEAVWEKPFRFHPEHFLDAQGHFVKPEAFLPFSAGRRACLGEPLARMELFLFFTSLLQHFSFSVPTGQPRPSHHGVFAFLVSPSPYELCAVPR

[29] = molecular target: CYP3A4 (Homo sapiens, UniProt P08684); assay: In vitro CYP inhibition in human liver microsomes; type: in vitro ADME
Chain of CYP3A4 (P08684 whole entry): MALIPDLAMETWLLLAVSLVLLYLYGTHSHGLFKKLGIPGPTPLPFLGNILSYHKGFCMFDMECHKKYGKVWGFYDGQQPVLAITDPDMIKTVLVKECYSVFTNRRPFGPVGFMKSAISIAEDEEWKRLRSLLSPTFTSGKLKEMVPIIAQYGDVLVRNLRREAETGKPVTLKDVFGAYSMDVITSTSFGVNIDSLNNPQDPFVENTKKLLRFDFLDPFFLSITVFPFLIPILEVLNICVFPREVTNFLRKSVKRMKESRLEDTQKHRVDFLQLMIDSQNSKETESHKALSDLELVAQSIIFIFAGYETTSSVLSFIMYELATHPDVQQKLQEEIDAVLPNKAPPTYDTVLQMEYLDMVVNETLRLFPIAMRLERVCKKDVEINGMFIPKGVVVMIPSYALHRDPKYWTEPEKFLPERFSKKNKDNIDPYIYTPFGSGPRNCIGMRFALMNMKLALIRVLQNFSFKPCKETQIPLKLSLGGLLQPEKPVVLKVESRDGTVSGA

[30] = molecular target: CYP2C8 (Homo sapiens, UniProt P10632); assay: In vitro CYP inhibition in human liver microsomes; type: in vitro ADME
Chain of CYP2C8 (P10632 whole entry): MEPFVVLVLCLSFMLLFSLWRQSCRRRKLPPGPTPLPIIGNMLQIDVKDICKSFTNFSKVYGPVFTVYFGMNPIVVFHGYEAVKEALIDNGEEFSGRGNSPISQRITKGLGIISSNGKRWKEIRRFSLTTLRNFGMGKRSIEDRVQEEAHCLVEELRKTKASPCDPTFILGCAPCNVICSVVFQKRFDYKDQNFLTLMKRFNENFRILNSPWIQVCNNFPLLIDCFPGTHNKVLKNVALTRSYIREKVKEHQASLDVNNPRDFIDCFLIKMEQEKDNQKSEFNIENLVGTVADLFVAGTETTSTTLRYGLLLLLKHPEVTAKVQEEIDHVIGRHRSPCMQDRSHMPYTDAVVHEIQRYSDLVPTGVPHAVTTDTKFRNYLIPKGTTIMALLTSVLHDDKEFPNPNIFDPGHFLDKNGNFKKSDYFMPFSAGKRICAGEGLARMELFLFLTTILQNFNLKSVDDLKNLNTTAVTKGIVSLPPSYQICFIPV

[31] = molecular target: CYP2C9 (Homo sapiens, UniProt P11712); assay: In vitro CYP inhibition in human liver microsomes; type: in vitro ADME
Chain of CYP2C9 (P11712 whole entry): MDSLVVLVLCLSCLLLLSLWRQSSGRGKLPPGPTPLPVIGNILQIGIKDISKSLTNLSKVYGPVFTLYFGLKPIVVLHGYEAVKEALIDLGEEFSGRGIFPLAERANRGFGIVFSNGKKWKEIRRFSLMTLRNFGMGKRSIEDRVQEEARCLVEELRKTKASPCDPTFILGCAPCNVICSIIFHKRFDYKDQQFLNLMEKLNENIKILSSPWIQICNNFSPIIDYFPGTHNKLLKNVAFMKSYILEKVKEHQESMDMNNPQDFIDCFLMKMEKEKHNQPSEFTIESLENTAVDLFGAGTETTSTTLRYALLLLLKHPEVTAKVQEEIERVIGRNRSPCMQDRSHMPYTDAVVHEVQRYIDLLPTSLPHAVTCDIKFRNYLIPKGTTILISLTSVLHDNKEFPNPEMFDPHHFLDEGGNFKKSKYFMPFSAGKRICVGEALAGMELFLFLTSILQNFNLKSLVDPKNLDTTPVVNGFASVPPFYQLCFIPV

[32] = Plasma protein binding; type: in vitro ADME; details: rat
[33] = Plasma protein binding; type: in vitro ADME; details: human
[34] = In vivo pharmacokinetics in mice; details: male, BALB/c, mouse, plasma
[35] = In vivo pharmacokinetics in rats; parameters: species or system male Wistar rats; details: rat
[36] = system: collagen‐induced arthritis (CIA); assay: Collagen‐induced arthritis in mice; type: in vivo, DBA1/J male mice; details: for reduction of clinical scores compared with vehicle controls: at study termination; for group mean histologic severity score of paws: vehicle 10.4
[37] = system: SCW induced arthritis; assay: Streptococcal cell wall; type: in vivo, Sprague Dawley rats
[38] = Toxicological studies in rats; type: in vivo; details: rats up to 300 mg/kg dose (unpublished observation)
[39] = system: TMD‐8 DLBCL xenograft tumor; assay: TMD‐8 xenograft model; details: for tumor growth inhibition: 20 consecutive days
[40] = system: TMD8 cells; assay: Cell washout cytotoxicity assay; details: TMD‐8 cells
[41] = system: IL‐6 secretion; assay: Cytokine ELISA, IL‐6 secretion in TMD8 cells; details: read-out: IC50 IL‐6 secretion, TMD‐8 cells, 16 hours
[42] = system: U2932 cell line; details: cited from earlier work
[43] = system: IL‐6; details: read-out: IC50 for IL‐6 inhibition; in‐vitro assays; cited from earlier work
[44] = system: arthritis; details: cited from earlier work
[45] = male, Wistar, plasma, iv, 1 mg/kg
[46] = male, Wistar, plasma, po, 3 mg/kg

**Q.** For `CC#CC(=O)N1CCC[C@H]1c1nc(-c2ccc(C(=O)Nc3ccccn3)cc2)c2c(N)nccn12` [ACP‐196], which “activity for the mutant BTK” value [1] is on record?
**A.** Its value is “appreciable activity”.

**Q.** Which “activity for the mutant BTK” value [1] does the source give for `CC#CC(=O)N1CC[C@@H](n2c(=O)n(-c3ccc(Oc4ccccc4)cc3)c3c(N)ncnc32)C1` [ONO/GS‐4050] here?
**A.** The value was “appreciable activity”.

**Q.** Which results are given for `C=CC(=O)N1CC2CC(n3nc(-c4ccc(C(=O)Nc5ccccn5)cc4)c4c(N)ncnc43)CC2C1` (centres unmarked) [ZYBT1, 4‐(1‐(2‐acryloyloctahydrocyclopenta[c]pyrrol‐5‐yl)‐4‐amino‐1H‐pyrazolo[3,4‐d]pyrimidin‐3‐yl)‐N‐(pyridin‐2‐yl)benzamide]?
**A.** IC50 [2]: 14 nM; Ki [3]: 14 nM; IC50 [4]: 27 nM; IC50 [5]: > 10000 nM; IC50 [6]: > 10000 nM; IC50 [7]: 38 nM; IC50 [8]: 1 nM; IC50 [9]: 12 nM; IC50 ([10]; U2932, 96 h, read-out: IC50 cell proliferation U2932): 961 nM; IC50 ([10]; U2932, read-out: IC50 U2932): ~1000 nM; fold resistance of U2932 versus TMD‐8 and HBL‐1 ([10]; within ABC‐DLBCL subgroup): ~ 1000 fold; IC50 [11]: 15000 nM; IC50 [12]: 1 nM; ZYBT1 still bound with BTK after washout [13]: more than 95%; IC50 ([14]; Homo sapiens, THP-1, 1 h, read-out: IC50 BTK‐phosphorylation (Y223)): 2 nM; phosphorylation of BTK after washout ([14]; THP‐1 cells, 500 nmol/L for 1 hour, washout, 24 hours): completely abolished; concentration that completely abrogates phosphorylation of tyrosine 223 ([14]; THP‐1 cells, one hour): ≥ 30 nmol/L; IC50 [15]: 114 nM; IC50 [16]: 1 nM; IC50 [17]: 0.2 nM; solubility ([18]; buffer, pH 4.5, aqueous buffer): < 2 µM; solubility ([18]; buffer, pH 6.8, aqueous buffer): < 2 µM; solubility ([18]; pH 1.2, simulated gastric fluid): 500 µM (≈ 247 µg/mL); solubility ([18]; purified water, water): < 2 µM; Papp at 2 µmol/L [19]: 3.3 ×10⁻⁶ cm/s; efflux transporter substrate [20]: substrate of efflux transporters; mClint [21]: 0.46 mL/min/gm liver; % metabolized ([21]; 1 µmol/L, 30 minutes, NADPH): up to 13%; mClint [22]: 2.62 mL/min/gm liver; % metabolized ([22]; 1 µmol/L, 30 minutes, NADPH): 55%; mClint [23]: 0.67 mL/min/gm liver; % metabolized ([23]; 1 µmol/L, 30 minutes, NADPH): ≤ 18%; mClint [24]: 1.28 mL/min/gm liver; % metabolized ([24]; 1 µmol/L, 30 minutes, NADPH): ≤ 32%; mCLlint [25]: 3.49 mL/min/gm liver; % metabolized ([25]; 1 µmol/L, 30 minutes, NADPH): 66%; IC50 [26]: > 30000 nM; IC50 [27]: > 30000 nM; IC50 [28]: > 30000 nM; IC50 [29]: > 30000 nM; IC50 [30]: 5000 to 15000 nM and 5500 nM; IC50 [31]: 5000 to 15000 nM and 14700 nM; fraction unbound [32]: 0.088; fraction unbound [33]: 0.016; clearance ([34]; iv, 1 mg/kg): 39.5 mL/min/kg; half-life ([34]; iv, 1 mg/kg): 24.6 min; AUC ([34]; po, 3 mg/kg): 590 ng·h/mL; Cmax ([34]; po, 3 mg/kg): 703 ng/mL; Tmax ([34]; po, 3 mg/kg): 15 min; half-life ([34]; po, 3 mg/kg): 45.6 min; Vd [35, 45]: 0.88 ± 0.12 L/kg; clearance [35, 45]: 36 ± 7.8 mL/min/kg; half-life [35, 45]: 36 ± 6 min; AUC [35, 46]: 908 ± 170 ng·h/mL; bioavailability [35, 46]: 75%; half-life [35, 46]: 132 ± 78 min; Cmax ([35]; male, Wistar, plasma, po, 3 mg/kg, peak plasma concentration (Cmax), rats, oral (3 mg/mg), mean ± SD, n = 4): 650 ± 222 ng/mL; exposure to free drug at efficacy dose ([35]; considering 91% PPB): 360 nmol/L; reduction of clinical scores compared with vehicle controls ([36]; 0.125 mg/kg once daily oral): 22%; group mean histologic severity score of paws ([36]; 0.125 mg/kg once daily): 5; reduction of clinical scores compared with vehicle controls ([36]; 0.25 mg/kg once daily oral): 61%; group mean histologic severity score of paws ([36]; 0.25 mg/kg once daily): 3.75; reduction of clinical scores compared with vehicle controls ([36]; 0.5 mg/kg once daily oral): 93%; group mean histologic severity score of paws ([36]; 0.5 mg/kg once daily): 1; efficacy in arthritis model compared with ibrutinib ([36]; 0.6 mg/kg ZYBT1 versus 3 mg/kg Ibrutinib): comparable efficacy as 3 mg/kg Ibrutinib; reduction of clinical scores compared with vehicle controls ([36]; 1 mg/kg once daily oral): 97%; group mean histologic severity score of paws ([36]; 1 mg/kg once daily): 0.2; body weight change ([36]; 0.125, 0.25, 0.5 & 1 mg/kg, OD, end of the study (Figure S5)): did not observe any body weight change; lowest, significantly efficacious dose ([36]; once daily): 0.25 mg/kg; time to improvement in clinical signs of disease after initiation of dosing ([36]; once daily oral dosing): 2 days; inhibition of paw volume ([37]; 75 mg/kg dose): complete inhibition of paw volume; serum levels of IL‐6 ([37]; 0.2, 1, 5, 25, 75 mg/kg): reduced with the treatment in a dose‐dependent manner; body weight ([37]; 0.2, 1, 5, 25, 75 mg/kg, SCW control animals lost weight): restored the body weight in a dose dependent manner; hematological and biochemical profile, clinical signs and body weight [38]: did not show any change in hematological and biochemical profile, clinical signs and body weight; tumor growth inhibition ([39]; 1.5 mg/kg BID oral): 10%; tumor growth inhibition ([39]; 3 mg/kg BID oral): 50%; anti‐tumor efficacy compared with ibrutinib ([39]; 12.5 mg/kg, BID, intra peritoneal, 14 consecutive days (Figure S2)): comparable; also recorded: slightly better potency compared to Ibrutinib; tumor growth inhibition ([39]; 15 mg/kg BID oral): 88%; anti‐tumor efficacy compared with acalabrutinib ([39]; 15 mg/kg, BID, p.o., 14 consecutive days (Figure S3)): much better efficacy than acalabrutinib; effect on body weight ([39]; 1.5, 3 & 15 mg/kg, p.o, BID, 20 days (Figure S4)): does not have any effect on the body weight; time for which cell killing is maintained after drug wash‐off ([40]; 25 nmol/L): at least 48 hours; IC50 [41]: 0.4 nM

**Q.** Which “cytotoxic effect after drug wash‐off” value ([40]; 100 nmol/L) does the source give for `Cc1nc(Nc2ncc(C(=O)Nc3c(C)cccc3Cl)s2)cc(N2CCN(CCO)CC2)n1` [dasatinib] here?
**A.** Its value is “failed to exert its effect when washed off; also recorded: completely lost its cytotoxic potential”.

**Q.** Which results are given for `C=CC(=O)N1CCC[C@@H](n2nc(-c3ccc(Oc4ccccc4)cc3)c3c(N)ncnc32)C1` [ibrutinib]?
**A.** IC50 ([1]; read-out: IC50 mutant BTK, C481S): 1000 nM; sensitivity of U2932 cell line to cytotoxicity [42]: resistant; IC50 [43]: 3.9 nM; ED50 anti‐arthritic activity [44]: 2.6 mg/kg/day
